Some test systems named below: M14; SW-620; MOLT-4; SN12C; U-251; NCI-H226; M19-MEL; OVCAR-8; SK-MEL-28; ACHN; HCC 2998; IGROV-1; SK-MEL-2; OVCAR-4; UACC-62; RXF 393; HOP-92; T47D; BT-549; MDA-N.
Holding throughout (test): NCI tumour cell line growth inhibition, 48 h

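Method: 48-hour compound exposure of cells in 96-well plates, five concentrations, linear interpolation of endpoints. The concentration for 50% growth inhibition is given as GI50.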 Active and inactive are the calls of the source. Cut-off read from the data, not from the text of the source: active = GI50 up to about 1.1 µM and inactive = higher. Some results are limits rather than exact numbers.

This note sets out measurements from ChEMBL document CHEMBL1201862, “PubChem BioAssay data set” (2004).

In the case of `CCOC(C[C@H](O[Si](C)(C)C(C)(C)C)[C@H]1COC(=S)S1)OCC`, the GI50 is 52.1 µM (inactive) with M14; 62.7 µM (inactive) in the test on SW-620; 34.7 µM (inactive) in the test with MOLT-4; 55.8 µM (inactive) with SN12C; 40.7 µM (inactive) with U-251; 85.1 µM (inactive) with NCI-H226. Moreover, the GI50 in the test with M19-MEL was 35.9 µM (inactive); in the test with OVCAR-8, 66.5 µM (inactive); with SK-MEL-28 it was > 100 µM (inactive); with ACHN, 48.5 µM (inactive); in the test with HCC 2998, > 100 µM (inactive).

Regarding `CCCCC(N)CSSCC(N)CCCC` (configuration not stated), the GI50 in the test with M14 was 17.9 µM (inactive); in the test with SW-620 it was 23.2 µM (inactive); in the test on MOLT-4, 19.2 µM (inactive); in the test on IGROV-1 it was 50.8 µM (inactive); in the test with SN12C it was 19.5 µM (inactive); with NCI-H226, 23.5 µM (inactive). In addition, the GI50 with M19-MEL is 26.2 µM (inactive); with OVCAR-8, 37.8 µM (inactive); with SK-MEL-28, 17.7 µM (inactive); with SK-MEL-2, 17.2 µM (inactive); with OVCAR-4, 18.2 µM (inactive); with ACHN, 34.4 µM (inactive). The GI50 with UACC-62 was 21.1 µM (inactive); with HCC 2998 it was 19 µM (inactive).

Turning to `CC(C)C(Nc1c2ccccc2[n+](C)c2ccccc12)C(=O)O` (configuration not stated), the GI50 in the test on M14, in the test with SW-620, in the test on MOLT-4, in the test with IGROV-1, in the test on SN12C and with U-251 was > 100 µM (inactive) in each case. For the same molecule, the GI50 in the test on NCI-H226, in the test on RXF 393, in the test on M19-MEL, in the test on OVCAR-8, in the test on SK-MEL-2 and with OVCAR-4 was > 100 µM (inactive) in each case. Moreover, the GI50 with ACHN, in the test with UACC-62 and in the test with HCC 2998 was > 100 µM (inactive) each time.

In the case of `O=C(CN1CCOCC1)Nc1nc(-c2ccc(Cl)cc2)cs1`, the GI50 with M14 is 32.2 µM (inactive); in the test on SW-620, 41.8 µM (inactive); in the test on MOLT-4, 13.8 µM (inactive); with IGROV-1, 45.2 µM (inactive); with SN12C it was 34.3 µM (inactive); with U-251, 24.2 µM (inactive). In addition, the GI50 is 53.7 µM (inactive) in the test on HOP-92; 24 µM (inactive) with NCI-H226; 32.6 µM (inactive) in the test with M19-MEL; 23.8 µM (inactive) with OVCAR-8; 25.6 µM (inactive) in the test on SK-MEL-28; 26.5 µM (inactive) in the test with SK-MEL-2. In addition, the GI50 was 25.7 µM (inactive) with OVCAR-4, 25.1 µM (inactive) with ACHN, 20 µM (inactive) with UACC-62 and 26.8 µM (inactive) in the test on HCC 2998.

Regarding `CC(=O)OC1CCC2OOC1O2` (configuration not stated), the GI50 with M14, with SW-620, in the test with MOLT-4, with IGROV-1, with SN12C and in the test with U-251 was > 100 µM (inactive) each time. Besides, the GI50 in the test on NCI-H226, in the test with RXF 393, in the test on M19-MEL, in the test with OVCAR-8, in the test on SK-MEL-28 and in the test on SK-MEL-2 was > 100 µM (inactive) in each case. In addition, the GI50 with OVCAR-4, in the test with ACHN, in the test on UACC-62 and in the test with HCC 2998 was > 100 µM (inactive) throughout.

Consider `CCOC(=O)c1c(O)nc(O)c(CC)c1C`, for which the GI50 with M14, in the test with SW-620, in the test with MOLT-4, in the test on IGROV-1, in the test on SN12C and with U-251 was > 100 µM (inactive) throughout. Moreover, the GI50 with T47D, in the test with HOP-92, with NCI-H226, in the test with RXF 393, in the test with BT-549 and with OVCAR-8 was > 100 µM (inactive) in each case. For the same molecule, the GI50 in the test on SK-MEL-28, with SK-MEL-2, in the test with OVCAR-4, in the test with ACHN, with MDA-N and in the test with UACC-62 was > 100 µM (inactive) throughout. For the same molecule, the GI50 in the test on HCC 2998 is > 100 µM (inactive).

Regarding `CCN(CC)c1oc(N(CC)CC)c(C(=O)Nc2ccccn2)c(=O)c1C(C)=O`, the GI50 in the test on M14, with SW-620, in the test on MOLT-4, with IGROV-1, in the test with SN12C and in the test with U-251 was > 100 µM (inactive) each time. Also, the GI50 with HOP-92, in the test on NCI-H226, in the test on M19-MEL, in the test on OVCAR-8, with SK-MEL-28 and in the test with SK-MEL-2 was > 100 µM (inactive) throughout. Besides, the GI50 in the test with ACHN and with UACC-62 was > 100 µM (inactive) throughout.

On to `CCOP(=O)(OCC)C1=C(c2ccccc2)OC(N)=C(C#N)C1c1ccc(Cl)cc1` (configuration not stated), for which the GI50 in the test with M14, with SW-620, in the test with MOLT-4, in the test on IGROV-1, in the test with SN12C and in the test with U-251 was > 100 µM (inactive) in each case. The GI50 in the test on T47D, in the test with HOP-92, with NCI-H226, in the test on RXF 393, in the test on BT-549 and with OVCAR-8 was > 100 µM (inactive) each time. The GI50 in the test on SK-MEL-28, in the test with SK-MEL-2, with OVCAR-4, in the test on ACHN, with MDA-N and with UACC-62 was > 100 µM (inactive) in each case. Also, in the test on HCC 2998, the GI50 was 79.3 µM (inactive).

On to `COc1ccccc1CCN1CCN(CCCc2ccccc2)CC1`, for which the GI50 with M14 was 24.2 µM (inactive); in the test on SW-620 it was > 100 µM (inactive); in the test with MOLT-4, 89.7 µM (inactive); in the test with IGROV-1, > 100 µM (inactive); in the test with SN12C, 83.9 µM (inactive); in the test on U-251 it was > 100 µM (inactive). Moreover, the GI50 in the test on T47D is 55.3 µM (inactive); in the test with HOP-92, 0.524 µM (active); in the test on NCI-H226 it was 72.9 µM (inactive); in the test with RXF 393, 59.8 µM (inactive); with BT-549, > 100 µM (inactive); with OVCAR-8 it was > 100 µM (inactive). The GI50 with SK-MEL-28 was > 100 µM (inactive); in the test on SK-MEL-2 it was > 100 µM (inactive); in the test on OVCAR-4 it was 89.7 µM (inactive); with ACHN, > 100 µM (inactive); in the test with MDA-N it was 58.9 µM (inactive); in the test on UACC-62, > 100 µM (inactive). Moreover, the GI50 with HCC 2998 is 47.3 µM (inactive).

As to `CC(=O)c1ccccc1NC(=O)C(=O)C(C(=O)c1ccc2ccccc2c1)C1OC(=O)c2ccccc21` (configuration not stated), the GI50 is 16.4 µM (inactive) in the test with M14; 7.83 µM (inactive) in the test with SW-620; 3.67 µM (inactive) in the test with MOLT-4; 16.1 µM (inactive) in the test on IGROV-1; 13.7 µM (inactive) with SN12C; 6.75 µM (inactive) with U-251. For the same molecule, the GI50 in the test with HOP-92 was 12.4 µM (inactive); with NCI-H226, 2.26 µM (inactive); in the test with M19-MEL it was 8.85 µM (inactive); in the test on OVCAR-8 it was 11.6 µM (inactive); with SK-MEL-28 it was 11.3 µM (inactive); with SK-MEL-2, 10.2 µM (inactive). Also, the GI50 with OVCAR-4 was 17.2 µM (inactive); with ACHN it was 31.8 µM (inactive); with UACC-62, 13 µM (inactive); in the test with HCC 2998 it was 4.72 µM (inactive).

As for `C1=C\SS/C=C\SS/C=C\SS/C=C\SS/1`, the GI50 in the test on M14 is 83.9 µM (inactive); in the test on SW-620, 51.4 µM (inactive); in the test with MOLT-4, 42.3 µM (inactive); in the test on IGROV-1, > 100 µM (inactive); in the test on SN12C it was > 100 µM (inactive); in the test with U-251 it was 81.8 µM (inactive). The GI50 is > 100 µM (inactive) in the test with T47D; 75.7 µM (inactive) in the test on HOP-92; > 100 µM (inactive) in the test with NCI-H226; 80.9 µM (inactive) in the test on RXF 393; > 100 µM (inactive) in the test on BT-549; 44.8 µM (inactive) in the test with OVCAR-8. Further, the GI50 in the test on SK-MEL-28, in the test with SK-MEL-2, in the test with OVCAR-4, in the test with ACHN, in the test with MDA-N and in the test with UACC-62 was > 100 µM (inactive) each time. Further, the GI50 in the test with HCC 2998 is > 100 µM (inactive).

On to `Cc1ccc(/C=N/NS(=O)(=O)c2ccc(/C=C3\NC(=O)NC3=O)cc2)cc1`, for which the GI50 is > 100 µM (inactive) in the test on M14; > 100 µM (inactive) in the test on SW-620; > 100 µM (inactive) in the test on MOLT-4; 87.9 µM (inactive) in the test with IGROV-1; > 100 µM (inactive) in the test with SN12C; 40.8 µM (inactive) in the test with U-251. Moreover, the GI50 was > 100 µM (inactive) in the test on T47D; 53.7 µM (inactive) with HOP-92; > 100 µM (inactive) with NCI-H226; > 100 µM (inactive) with RXF 393; > 100 µM (inactive) with BT-549; 37.8 µM (inactive) in the test on OVCAR-8. Also, the GI50 in the test on SK-MEL-28, in the test with SK-MEL-2, with OVCAR-4, with ACHN, with MDA-N and in the test with UACC-62 was > 100 µM (inactive) throughout. Further, the GI50 in the test on HCC 2998 was > 100 µM (inactive).
